Active and inactive are the calls of the source.
Tests used:
[1] = test system: Streptococcus sp. 'group A'; test: Streptococcus pyogenes SK(-)GAS viability under kanamycin – luminescence, BacTiterGlo, confirmation, counter-screen for streptokinase expression inhibitor project, dose response (AID 1900); assay type: functional, organism-based
Streptokinase A = target: T1, Streptokinase A (Streptococcus pyogenes serotype M1, UniProt P10520); test: viability-normalized secreted streptokinase activity reduction – plasminogen activation absorbance, OD405, dose response (AID 1914); assay type: functional, Streptococcus pyogenes M1 GAS;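 also: secreted streptokinase activity via plasminogen activation per viability signal from cell pellet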
T1 sequence (P10520 whole entry): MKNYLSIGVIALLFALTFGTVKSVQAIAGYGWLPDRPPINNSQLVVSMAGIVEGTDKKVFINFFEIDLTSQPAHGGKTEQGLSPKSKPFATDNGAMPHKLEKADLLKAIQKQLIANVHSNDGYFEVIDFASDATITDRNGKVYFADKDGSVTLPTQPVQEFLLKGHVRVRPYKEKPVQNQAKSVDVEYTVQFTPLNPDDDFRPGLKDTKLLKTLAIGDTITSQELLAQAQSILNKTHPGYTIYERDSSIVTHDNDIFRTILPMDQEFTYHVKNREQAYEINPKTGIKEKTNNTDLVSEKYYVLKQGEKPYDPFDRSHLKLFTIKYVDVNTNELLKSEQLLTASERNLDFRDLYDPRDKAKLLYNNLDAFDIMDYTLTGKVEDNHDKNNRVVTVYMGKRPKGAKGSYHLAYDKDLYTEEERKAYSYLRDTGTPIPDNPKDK

Streptococcus = test: GAS UMAA2166 growth inhibition – luminescence, BacTiterGlo, counter-screen for streptokinase expression inhibitor project, dose response (AID 1915); assay type: functional, organism-based;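 also: potency for reduction of bacterial viability or growth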
Cysteine protease ATG4B = target: T2, Cysteine protease ATG4B (Homo sapiens, UniProt Q9Y4P1); assay type: functional;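 also: Fluorescence-based dose-response confirmation assay measuring inhibition of ATG4B activity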
T2 sequence (Q9Y4P1 whole entry): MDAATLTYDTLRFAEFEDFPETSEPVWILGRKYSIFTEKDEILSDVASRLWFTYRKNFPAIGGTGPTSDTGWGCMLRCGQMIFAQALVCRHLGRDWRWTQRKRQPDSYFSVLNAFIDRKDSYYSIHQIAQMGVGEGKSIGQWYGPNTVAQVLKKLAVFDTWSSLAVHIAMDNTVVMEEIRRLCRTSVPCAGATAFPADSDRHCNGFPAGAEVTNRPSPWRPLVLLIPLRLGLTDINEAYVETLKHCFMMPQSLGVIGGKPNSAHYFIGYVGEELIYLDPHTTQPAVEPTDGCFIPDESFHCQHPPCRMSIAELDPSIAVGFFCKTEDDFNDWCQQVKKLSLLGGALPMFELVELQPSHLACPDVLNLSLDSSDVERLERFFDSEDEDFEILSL

Phospholipase A2 = Phospholipase A2 (Homo sapiens, UniProt P04054); assay type: functional;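 also: confirmatory dose-response counterscreen on phospholipase A2, testing hits that came from an ultra-high-throughput screen for ATG4B inhibitors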
[2] = target: Cyclin-dependent kinase 5/CDK5 activator 1 (Homo sapiens, UniProt Q00535); test: blockade of human CDK5 activity – biochemical, cherry-picked samples, set 2, dose response (AID 504545)
[3] = target: Dual specificity tyrosine-phosphorylation-regulated kinase 1A (Rattus norvegicus, UniProt Q63470); assay type: biochemical, Homo sapiens
[4] = target: T3, Calpain-2 catalytic subunit (Sus scrofa, UniProt P43367); test: m-calpain protease blockers, concentration series – biochemical, fluorogenic peptide substrate, dose response (AID 1420); assay type: functional
T3 sequence (P43367 whole entry): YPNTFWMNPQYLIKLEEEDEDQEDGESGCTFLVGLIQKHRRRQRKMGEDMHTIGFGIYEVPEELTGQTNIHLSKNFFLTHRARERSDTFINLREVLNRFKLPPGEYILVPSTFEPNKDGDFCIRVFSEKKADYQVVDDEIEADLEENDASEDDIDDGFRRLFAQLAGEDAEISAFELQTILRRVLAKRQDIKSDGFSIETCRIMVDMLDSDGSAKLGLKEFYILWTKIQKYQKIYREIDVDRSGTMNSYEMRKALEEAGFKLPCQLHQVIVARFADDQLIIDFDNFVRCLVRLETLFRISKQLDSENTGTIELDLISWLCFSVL

Escherichia coli = test: microbe, parasite or virus in culture
[5] = target: Induced myeloid leukemia cell differentiation protein Mcl-1 (Homo sapiens, UniProt Q07820); assay type: functional
[6] = target: Delta-type opioid receptor (Homo sapiens, UniProt P41143); test: Counterscreen for agonists of heterodimerization of the mu 1 (OPRM1) and delta 1 (OPRD1) opioid receptors: Luminescence-based cell-based high throughput dose response assay to identify agonists of OPRD1 homodimerization. [Related pubchem assays (depositor defined):AID504326, AID504355, AID504692, AID504904, AID504905]; assay type: functional
Mu-type opioid receptor = Mu-type opioid receptor (Homo sapiens, UniProt P35372); test: Counterscreen for agonists of heterodimerization of the mu 1 (OPRM1) and delta 1 (OPRD1) opioid receptors: Luminescence-based cell-based high throughput dose response assay to identify agonists of OPRM1 homodimerization.; assay type: functional;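 also: U2OS cells expressing OPRM1 and beta-arrestin as split beta-galactosidase partners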
[7] = target: 5-hydroxytryptamine receptor 5A (Homo sapiens, UniProt P47898); test: Counterscreen for agonists of OPRM1-OPRD1 heterodimerization: luminescence-based cell-based high throughput dose response assay to identify agonists of 5-hydroxytryptamine (serotonin) 5A receptor (HTR5A). [Related pubchem assays (depositor defined):AID504326, AID504355, AID504692, AID504904, AID504905]; assay type: functional
[8] = target: T4, Carboxy-terminal domain RNA polymerase II polypeptide A small phosphatase 1 (Homo sapiens, UniProt Q9GZU7); test: CTDSP1 inhibitors, concentration-response, biochemical, absorbance readout, ultra-high-throughput screen actives (AID 540297); assay type: functional
T4 sequence (Q9GZU7 whole entry): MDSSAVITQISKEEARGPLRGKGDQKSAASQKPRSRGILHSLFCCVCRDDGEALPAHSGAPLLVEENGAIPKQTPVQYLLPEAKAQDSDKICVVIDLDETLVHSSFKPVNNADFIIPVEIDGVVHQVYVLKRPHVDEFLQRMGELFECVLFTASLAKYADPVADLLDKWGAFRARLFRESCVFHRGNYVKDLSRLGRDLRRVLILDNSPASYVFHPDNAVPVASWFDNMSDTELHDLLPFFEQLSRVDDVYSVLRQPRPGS

Beta-galactosidase = Beta-galactosidase (Escherichia coli, UniProt Q8VNN2); test: PubChem AID 485352; assay type: functional
[9] = target: T5, Type-1 angiotensin II receptor (Homo sapiens, UniProt P30556); test: antagonism of angiotensin II type 1 receptor – cell-based, uHTS hits, selectivity assay for APJ receptor antagonist project, dose response (AID 463214); assay type: functional;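 also: antagonist potency against angiotensin II stimulated AT1 response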
T5 sequence (P30556 whole entry): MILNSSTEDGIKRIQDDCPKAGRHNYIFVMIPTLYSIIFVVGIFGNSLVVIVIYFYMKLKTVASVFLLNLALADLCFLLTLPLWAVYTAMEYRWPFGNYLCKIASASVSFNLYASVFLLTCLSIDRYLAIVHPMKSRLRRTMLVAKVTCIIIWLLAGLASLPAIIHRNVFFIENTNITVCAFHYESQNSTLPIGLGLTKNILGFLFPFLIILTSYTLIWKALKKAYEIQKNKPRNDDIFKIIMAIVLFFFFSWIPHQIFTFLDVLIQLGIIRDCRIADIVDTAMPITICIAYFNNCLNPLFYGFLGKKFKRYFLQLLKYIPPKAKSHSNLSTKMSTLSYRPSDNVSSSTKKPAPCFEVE

[10] = target: Heat shock protein HSP 90-alpha (Homo sapiens, UniProt P07900); assay type: functional, organism-based
[11] = Luminescence Cell-Based Dose Retest to Confirm Inhibitors of Cancer Stem Cells. [Related pubchem assays (depositor defined):AID2717, AID2721]; assay type: functional; settings: Homo sapiens
[12] = viability loss of HMLE_sh_eGFP cells – cell-based, luminescence, counter-screen for HMLE_sh_ECad selective toxicity project, dose response (AID 463074); assay type: functional, Homo sapiens;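 also: HMLE human mammary epithelial cells expressing control shRNA against eGFP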
[13] = target: Intestinal-type alkaline phosphatase (Mus musculus, UniProt P24822); test: PubChem AID 488785; assay type: functional
[14] = target: T6, Alkaline phosphatase, tissue-nonspecific isozyme (Homo sapiens, UniProt P05186); test: TNAP enzyme inhibition by screening hits, dose response, selectivity assay for mouse IAP inhibitor project, biochemical, human TNAP, uHTS hits (AID 488906); assay type: functional
T6 sequence (P05186 whole entry): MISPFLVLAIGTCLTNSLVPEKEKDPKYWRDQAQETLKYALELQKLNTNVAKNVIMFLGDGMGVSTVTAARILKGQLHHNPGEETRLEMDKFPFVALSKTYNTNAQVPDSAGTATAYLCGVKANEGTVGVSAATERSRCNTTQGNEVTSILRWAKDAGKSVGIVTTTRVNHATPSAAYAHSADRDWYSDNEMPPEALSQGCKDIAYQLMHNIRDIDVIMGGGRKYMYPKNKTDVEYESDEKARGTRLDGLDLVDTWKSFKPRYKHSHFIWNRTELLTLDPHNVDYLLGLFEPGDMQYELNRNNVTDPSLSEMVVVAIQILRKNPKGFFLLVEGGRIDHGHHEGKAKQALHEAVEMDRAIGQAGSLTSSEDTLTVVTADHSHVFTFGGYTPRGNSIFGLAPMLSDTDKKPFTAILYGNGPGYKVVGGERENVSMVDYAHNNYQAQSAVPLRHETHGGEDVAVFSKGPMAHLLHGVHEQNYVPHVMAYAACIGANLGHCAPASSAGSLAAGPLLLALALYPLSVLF

[15] = target: T7, Intestinal-type alkaline phosphatase (Homo sapiens, UniProt P09923); test: inhibition of human intestinal alkaline phosphatase – biochemical, dose response (AID 488876); assay type: functional
[16] = viability of uninfected HEp-2 cells – cell-based, HTS, cytotoxicity control for RSV inhibitor project, dose response (AID 2410); assay type: functional; settings: human respiratory syncytial virus
HEK293 [17] = test: cells; settings: Homo sapiens
HEK293 [18] = test: cells; settings: Homo sapiens; remark: listed apart in the source
Large T antigen = Large T antigen (Simian virus 40, UniProt P03070); assay type: functional, Betapolyomavirus macacae;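 also: Confirmatory-stage PubChem screen for compounds that inhibit SV40 T antigen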
[19] = target: T7, Intestinal-type alkaline phosphatase; test: activation of human intestinal alkaline phosphatase – biochemical, dose response (AID 488873); assay type: functional

Sequence of Beta-galactosidase (Q8VNN2 whole entry): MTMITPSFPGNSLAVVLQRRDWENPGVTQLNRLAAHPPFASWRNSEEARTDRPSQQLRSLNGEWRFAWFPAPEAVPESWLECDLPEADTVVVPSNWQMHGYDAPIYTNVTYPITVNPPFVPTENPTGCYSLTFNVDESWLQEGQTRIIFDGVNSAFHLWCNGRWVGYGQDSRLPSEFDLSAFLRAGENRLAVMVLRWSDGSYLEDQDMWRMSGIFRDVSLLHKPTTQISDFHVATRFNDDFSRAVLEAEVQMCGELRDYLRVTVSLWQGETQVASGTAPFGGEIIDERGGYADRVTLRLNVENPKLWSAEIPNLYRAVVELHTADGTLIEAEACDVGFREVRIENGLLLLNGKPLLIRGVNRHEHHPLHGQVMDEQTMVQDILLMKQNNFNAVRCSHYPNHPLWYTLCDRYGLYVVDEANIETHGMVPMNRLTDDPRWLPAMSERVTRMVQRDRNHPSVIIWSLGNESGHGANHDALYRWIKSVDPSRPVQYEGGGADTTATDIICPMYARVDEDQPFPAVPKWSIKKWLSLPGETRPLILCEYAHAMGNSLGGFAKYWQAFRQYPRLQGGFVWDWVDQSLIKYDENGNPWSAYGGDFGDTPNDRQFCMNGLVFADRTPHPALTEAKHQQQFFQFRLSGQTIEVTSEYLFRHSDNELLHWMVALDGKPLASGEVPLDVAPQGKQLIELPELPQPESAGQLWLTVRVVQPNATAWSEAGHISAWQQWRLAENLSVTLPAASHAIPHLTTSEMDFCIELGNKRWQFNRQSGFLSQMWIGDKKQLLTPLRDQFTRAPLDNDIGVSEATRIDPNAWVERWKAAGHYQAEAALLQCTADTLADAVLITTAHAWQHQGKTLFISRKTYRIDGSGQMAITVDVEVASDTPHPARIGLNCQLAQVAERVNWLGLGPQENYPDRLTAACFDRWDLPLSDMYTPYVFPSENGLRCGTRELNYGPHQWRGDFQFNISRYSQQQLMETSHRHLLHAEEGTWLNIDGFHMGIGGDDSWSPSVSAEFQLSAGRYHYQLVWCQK
Sequence of Phospholipase A2 (P04054 whole entry): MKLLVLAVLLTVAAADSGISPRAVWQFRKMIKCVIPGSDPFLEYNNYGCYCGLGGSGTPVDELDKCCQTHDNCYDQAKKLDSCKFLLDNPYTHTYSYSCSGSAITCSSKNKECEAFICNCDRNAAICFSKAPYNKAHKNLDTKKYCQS
Sequence of Mu-type opioid receptor (P35372 whole entry): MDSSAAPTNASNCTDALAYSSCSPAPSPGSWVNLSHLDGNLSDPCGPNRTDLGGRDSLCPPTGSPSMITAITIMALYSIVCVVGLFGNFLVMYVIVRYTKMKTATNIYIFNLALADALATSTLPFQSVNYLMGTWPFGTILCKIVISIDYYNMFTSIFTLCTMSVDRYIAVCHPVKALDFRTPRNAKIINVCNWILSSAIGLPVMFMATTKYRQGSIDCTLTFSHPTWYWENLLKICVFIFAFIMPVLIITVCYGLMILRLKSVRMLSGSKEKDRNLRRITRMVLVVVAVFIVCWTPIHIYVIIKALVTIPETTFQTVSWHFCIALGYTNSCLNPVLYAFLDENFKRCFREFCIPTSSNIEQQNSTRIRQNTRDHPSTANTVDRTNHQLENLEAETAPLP
Sequence of Delta-type opioid receptor (P41143 whole entry): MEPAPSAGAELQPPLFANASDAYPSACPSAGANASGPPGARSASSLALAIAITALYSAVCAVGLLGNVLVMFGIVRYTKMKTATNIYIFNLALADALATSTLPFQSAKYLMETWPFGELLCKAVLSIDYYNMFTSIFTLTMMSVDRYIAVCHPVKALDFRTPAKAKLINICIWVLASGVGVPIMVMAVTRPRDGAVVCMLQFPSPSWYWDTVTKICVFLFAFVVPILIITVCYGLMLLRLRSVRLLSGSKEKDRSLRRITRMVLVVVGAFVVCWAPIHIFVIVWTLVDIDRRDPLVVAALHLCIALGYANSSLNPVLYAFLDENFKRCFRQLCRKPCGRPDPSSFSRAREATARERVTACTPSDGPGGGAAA
Sequence of 5-hydroxytryptamine receptor 5A (P47898 whole entry, the tested form may be a part): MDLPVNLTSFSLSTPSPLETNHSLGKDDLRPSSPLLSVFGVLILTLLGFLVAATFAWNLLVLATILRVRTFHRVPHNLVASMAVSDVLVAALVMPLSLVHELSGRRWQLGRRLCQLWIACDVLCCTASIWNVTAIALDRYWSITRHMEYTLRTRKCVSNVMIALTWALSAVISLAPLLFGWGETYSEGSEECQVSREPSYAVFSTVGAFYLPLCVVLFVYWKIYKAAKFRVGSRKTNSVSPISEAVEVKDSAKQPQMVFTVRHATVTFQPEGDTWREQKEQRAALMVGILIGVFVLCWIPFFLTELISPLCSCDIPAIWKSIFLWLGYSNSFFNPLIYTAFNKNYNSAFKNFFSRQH
T7 sequence (P09923 whole entry): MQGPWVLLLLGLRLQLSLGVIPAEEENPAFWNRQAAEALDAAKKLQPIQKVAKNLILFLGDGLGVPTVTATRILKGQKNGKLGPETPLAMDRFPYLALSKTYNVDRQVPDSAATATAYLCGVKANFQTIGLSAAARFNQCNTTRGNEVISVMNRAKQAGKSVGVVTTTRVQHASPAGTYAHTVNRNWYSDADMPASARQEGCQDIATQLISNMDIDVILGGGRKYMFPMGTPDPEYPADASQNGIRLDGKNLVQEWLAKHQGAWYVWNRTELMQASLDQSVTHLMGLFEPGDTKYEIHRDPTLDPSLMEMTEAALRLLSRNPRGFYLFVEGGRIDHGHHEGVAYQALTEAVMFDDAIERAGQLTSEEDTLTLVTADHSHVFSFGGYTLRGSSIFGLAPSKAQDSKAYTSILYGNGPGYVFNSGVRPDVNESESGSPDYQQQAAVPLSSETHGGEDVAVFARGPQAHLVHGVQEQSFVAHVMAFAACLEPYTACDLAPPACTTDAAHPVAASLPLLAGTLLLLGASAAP
Sequence of Intestinal-type alkaline phosphatase (Mus musculus, UniProt P24822) (P24822 whole entry): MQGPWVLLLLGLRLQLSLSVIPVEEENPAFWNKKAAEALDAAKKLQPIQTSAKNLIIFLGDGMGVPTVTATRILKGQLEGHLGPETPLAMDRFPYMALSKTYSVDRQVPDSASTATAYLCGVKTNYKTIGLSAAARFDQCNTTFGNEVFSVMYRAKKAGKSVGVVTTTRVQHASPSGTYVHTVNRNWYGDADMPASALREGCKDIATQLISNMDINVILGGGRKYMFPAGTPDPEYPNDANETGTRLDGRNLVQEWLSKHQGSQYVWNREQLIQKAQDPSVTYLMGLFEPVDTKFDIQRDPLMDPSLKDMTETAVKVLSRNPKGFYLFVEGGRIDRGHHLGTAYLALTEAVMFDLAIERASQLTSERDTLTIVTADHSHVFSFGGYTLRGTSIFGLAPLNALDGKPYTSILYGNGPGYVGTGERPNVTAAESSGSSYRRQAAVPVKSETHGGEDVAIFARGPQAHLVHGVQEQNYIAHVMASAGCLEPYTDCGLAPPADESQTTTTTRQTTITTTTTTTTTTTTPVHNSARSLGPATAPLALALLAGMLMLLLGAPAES
Sequence of Large T antigen (P03070 whole entry): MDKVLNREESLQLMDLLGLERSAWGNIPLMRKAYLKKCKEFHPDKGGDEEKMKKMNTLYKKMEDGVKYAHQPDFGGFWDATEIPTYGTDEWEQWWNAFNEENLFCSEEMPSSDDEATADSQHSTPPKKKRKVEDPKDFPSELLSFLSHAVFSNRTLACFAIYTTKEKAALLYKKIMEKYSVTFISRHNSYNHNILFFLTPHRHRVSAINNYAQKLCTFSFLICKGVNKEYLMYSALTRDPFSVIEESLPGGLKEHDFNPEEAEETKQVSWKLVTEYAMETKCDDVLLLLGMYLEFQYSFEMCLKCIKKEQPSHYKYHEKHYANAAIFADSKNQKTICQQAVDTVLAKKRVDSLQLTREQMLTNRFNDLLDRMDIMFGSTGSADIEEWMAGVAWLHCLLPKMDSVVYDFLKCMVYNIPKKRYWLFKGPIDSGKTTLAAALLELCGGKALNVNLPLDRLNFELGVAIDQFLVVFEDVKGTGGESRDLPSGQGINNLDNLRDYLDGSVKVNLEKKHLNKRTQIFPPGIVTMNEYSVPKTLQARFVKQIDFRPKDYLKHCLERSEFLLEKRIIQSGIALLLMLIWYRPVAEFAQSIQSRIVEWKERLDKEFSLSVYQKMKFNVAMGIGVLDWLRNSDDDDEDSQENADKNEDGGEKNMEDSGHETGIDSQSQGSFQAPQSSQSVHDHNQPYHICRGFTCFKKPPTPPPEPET
Sequence of Cyclin-dependent kinase 5/CDK5 activator 1 (Q00535 whole entry): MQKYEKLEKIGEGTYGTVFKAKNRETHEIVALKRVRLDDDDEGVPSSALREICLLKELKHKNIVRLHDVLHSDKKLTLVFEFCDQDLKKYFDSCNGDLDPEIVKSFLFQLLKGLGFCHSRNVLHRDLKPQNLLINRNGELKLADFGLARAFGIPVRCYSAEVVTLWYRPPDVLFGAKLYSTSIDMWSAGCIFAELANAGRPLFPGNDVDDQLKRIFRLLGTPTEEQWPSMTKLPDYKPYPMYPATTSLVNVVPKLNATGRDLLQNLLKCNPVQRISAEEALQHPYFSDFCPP
Sequence of Cyclin-dependent kinase 5/CDK5 activator 1 (Q15078 whole entry, further chain): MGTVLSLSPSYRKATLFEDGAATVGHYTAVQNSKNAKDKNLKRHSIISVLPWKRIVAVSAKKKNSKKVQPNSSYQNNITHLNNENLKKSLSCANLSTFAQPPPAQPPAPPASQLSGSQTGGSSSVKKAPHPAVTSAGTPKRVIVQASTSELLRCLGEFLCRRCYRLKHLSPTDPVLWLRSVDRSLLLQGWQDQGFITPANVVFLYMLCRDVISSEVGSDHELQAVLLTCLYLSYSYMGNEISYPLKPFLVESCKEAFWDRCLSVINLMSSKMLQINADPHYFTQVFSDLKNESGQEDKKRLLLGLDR

## CCc1nn(CCCC(=O)NCc2ccccc2Br)c(=O)c2cc3occc3n12
[1]
  EC50: 1.12 µM (active)
Streptokinase A
  EC50: > 150 µM (not active)
Streptococcus
  EC50: > 150 µM (not active)
Cysteine protease ATG4B
  IC50: 16.8 µM (active)
Phospholipase A2
  IC50: 20 µM (inactive)

## N#Cc1c(NC(=O)C2CC(c3ccccc3Cl)=NO2)sc2c1CCC2 (stereo not given)
Cysteine protease ATG4B
  IC50: 4.36 µM (active)
Phospholipase A2
  IC50: 3.48 µM (active)

## COc1ccc2nc3c(cc2c1)c(NC(=O)c1cccs1)nn3CC(C)C
[2]
  AC50: 4.21 µM (active)
[3]
  AC50: 0.43 µM (active)

## CCOc1ccc(C2=CS/C(=C(\C#N)c3nnc4n3CCCCC4)N2CC)cc1
Cysteine protease ATG4B
  IC50: 13 µM (active)
Phospholipase A2
  IC50: 8.21 µM (active)

## CCCN(Cc1ccccc1)C(S)=Nc1ccc(SC(F)F)cc1
[4]
  IC50: 18.1 µM (not active)
Escherichia coli
  AC50: 41.9 µM (active)

## O=C(Nc1cccc(-c2nn[nH]n2)c1)c1ccc(Cl)s1
[3]
  AC50: 1.44 µM (active)

## COc1cccc(C(=O)Nc2ccc3c(c2)C(=O)c2ccccc2C3=O)c1
[5]
  IC50: 1.82 µM (active)
[6]
  EC50: > 92.5 µM (inactive)
Mu-type opioid receptor
  EC50: > 92.5 µM (inactive)
[7]
  EC50: > 92.5 µM (inactive)
[8]
  IC50: 6.16 µM (active)

## O=C1OCC(CO)(CO)N=C1NNc1ccc(Cl)c(Cl)c1
Beta-galactosidase
  EC50: > 40 µM (inactive)
[9]
  IC50: 16.6 µM (active)
[10]
  AC50: 2.31 µM (active)

## COc1cc(/C=C2\SC(=S)N(N3CCOCC3)C2=O)ccc1O
Beta-galactosidase
  EC50: > 40 µM (inactive)
[9]
  IC50: > 40 µM (not active)

## COc1ccc(NC(=O)/C(C#N)=C\C=C\c2ccco2)cc1
[11]
  AC50: 1.36 µM (active)
[12]
  AC50: 23.1 µM (active)

## CCN(c1ccccc1)S(=O)(=O)c1ccc2[nH]c(=O)[nH]c2c1
[13]
  IC50: 3.89 µM (active)
[14]
  IC50: 24.9 µM (active)
[15]
  IC50: 33.8 µM (active)

## Cc1ccc(C(=O)COC(=O)c2cnccn2)cc1[N+](=O)[O-]
Beta-galactosidase
  EC50: > 40 µM (inactive)
[9]
  IC50: 38.5 µM (not active)

## CC[C@@]12C(=O)N(c3cccc(Br)c3)C(=O)N1[C@H](c1ccc(Cl)cc1)[C@@H]1C(=O)N(C3CCCCC3)C(=O)[C@@H]12
[16]
  CC50: > 50 µM (active)
HEK293 [17]
  EC50: > 59.6 µM (inactive)
HEK293 [18]
  EC50: > 59.6 µM (inactive)

## COC(=O)C1=CO[C@@H](C)[C@@H]2CN(CCc3c[nH]c4ccccc34)CC[C@H]12
[6]
  EC50: > 92.4 µM (inactive)
Mu-type opioid receptor
  EC50: > 92.4 µM (inactive)
[7]
  EC50: > 92.4 µM (inactive)

## Fc1ccc(N/N=C/c2ccncc2)c(F)c1
[11]
  AC50: 43.7 µM (active)
[12]
  AC50: 102 µM (active)

## O=c1oc2cc(O)ccc2s1 [TIOXOLONE]
Large T antigen
  IC50: 19 µM (active)
[19]
  EC50: 8.33 µM (active)
[13]
  IC50: 2.59 µM (active)
[14]
  IC50: > 100 µM (inactive)
HEK293 [17]
  EC50: > 59.6 µM (inactive)
HEK293 [18]
  EC50: > 59.6 µM (inactive)

Source: ChEMBL document CHEMBL1201862, “PubChem BioAssay data set” (2004)
